# Values of other authors in US20040110828A1, “Tetrahydrocannabinol compositions and methods of manufacture and use thereof” (priority 2002, published 2004).
structure (smiles),measurement,setting,value
"CCCCCc1cc(O)c2c(c1)OC(C)(C)[C@@H]1CCC(C)=C[C@@H]21 [Delta 9-THC, Delta 9-tetrahydrocannabinol]",half-life of blood level,"IV administration, slow phase after the initial distribution (first 30 minutes)",≥ 19 h
same,compound and its metabolites remaining in the body,one week after an IV injection of a single dose,25-30%
